Patent publication US11772141B1, “Method for targeted regulation of soil microbes to synchronize heavy metal/metalloid transformation and greenhouse gas emission reduction and use” (priority 2022, dated 2023)

Assays:
[1] = tested on: soil microbes; conditions: Met 1 mM, Met:Fat 1:10 in combinations
Experimental: 5 grams of arsenic-contaminated rice field soils taken from Hunan Province, China was placed into a 20 mL glass sample tube, 2.5 mL of sterilized culture medium was added, and then the glass sample tube was placed in an anaerobic glove box for cultivation. The culture medium was composed of 10 mM NH4Cl, 5 mM NaHCO3, 1 mM KH2PO4, 0.5 mM MgCl2, 0.5 CaCl2, 1 mL of L^−1 vitamin and 1 mL/L of trace elements. […] After addition of the Met and the Fat and after further reaction for 60 days, headspace gas was collected and measured by GC-TCD, a soil suspension was extracted, and ammonium dihydrogen phosphate was added to desorb adsorbed methyl arsenic. After the resulted soil suspension passed through a 0.22-micron membrane, methyl arsenic, including monomethylarsenic, dimethylarsenic and trimethylarsenic oxides, in a soil solution was measured by HPLC-ICPMS. […]
After further anaerobic culture for 60 days, headspace gas was collected and measured by GC-TCD, a soil suspension was extracted, and ammonium dihydrogen phosphate was added to desorb adsorbed methyl arsenic. After the resulted soil suspension passed through a 0.22-micron membrane, the methyl arsenic in the soil solution was measured by HPLC-ICPMS.

[2] = tested on: arsM gene; conditions: soil control 950
Experimental: Construction of the plasmid standard was performed by ligating a vector pUC19 with a PCR product of arsM or mcrA gene. After a single clone was picked, plasmid DNA was extracted, the DNA concentration was measured with Qubit 3.0 Fluorometer, the gene copy number was calculated, and then the EASY dilution solution was diluted to 10^2-10^8(copy number per μL) to obtain a Standard curve. […] Information and reaction procedures of the primers used for amplification of the arsM and mcrA genes were as follows:
arsM amplification reaction program: at 95° C. for 10 min; at 95° C. for 30 s, at 60° C. for 45 s, and at 72° C. for 1 min, 40 cycles; and prolonging at 72° C. for 10 min;

[3] = tested on: mcrA gene; conditions: soil control 1.5*10^6
Experimental: Construction of the plasmid standard was performed by ligating a vector pUC19 with a PCR product of arsM or mcrA gene. After a single clone was picked, plasmid DNA was extracted, the DNA concentration was measured with Qubit 3.0 Fluorometer, the gene copy number was calculated, and then the EASY dilution solution was diluted to 10^2-10^8(copy number per μL) to obtain a Standard curve.
mcrA amplification reaction program: at 95° C. for 10 min; at 95° C. for 15 s, at 58° C. for 30 s, and at 72° C. for 30 s, 40 cycles; and prolonging at 72° C. for 2 min.

CSCC[C@H](N)C(=O)O [methionine]
production of methyl arsenic ([1]; 60 days anaerobic reaction): 0.1 µM | methane emission ([1]; 60 days, control group 5.5 mM): 18.7 mM | transcript copy number of arsM [2]: 1200 copies per g of soils | transcript copy number of mcrA [3]: 2.0*10^7 copies per g of soils
